Assay results as given in US20220281848A1, “PYRAZOLE-SUBSTITUTED PYRROLIDINONES AS HERBICIDES” (FMC Corporation, priority 2019, published 2022).

Test system: plants
Assay: Test D post-emergence, other plants of Tables D2 and D4
Type: in vivo
Settings: for ALOMY damage rating (100=total damage to plant; 0=no damage to plant) / AVEFA damage rating (100=total damage to plant; 0=no damage to plant) / BEAVA damage rating (100=total damage to plant; 0=no damage to plant) / BROTE damage rating (100=total damage to plant; 0=no damage to plant) / BRSNN damage rating (100=total damage to plant; 0=no damage to plant) / CHEAL damage rating (100=total damage to plant; 0=no damage to plant) / GALAP damage rating (100=total damage to plant; 0=no damage to plant) / HORVW damage rating (100=total damage to plant; 0=no damage to plant) / KCHSC damage rating (100=total damage to plant; 0=no damage to plant) / LOLPE damage rating (100=total damage to plant; 0=no damage to plant) / POAAN damage rating (100=total damage to plant; 0=no damage to plant) / POLCO damage rating (100=total damage to plant; 0=no damage to plant) / SINAR damage rating (100=total damage to plant; 0=no damage to plant) / STEME damage rating (100=total damage to plant; 0=no damage to plant) / VERPE damage rating (100=total damage to plant; 0=no damage to plant): "Cereals" Postemergent, evaluated after 15 d; for damage to plant (100=total damage to plant; 0=no damage to plant), ABUTH / damage to plant (100=total damage to plant; 0=no damage to plant), AMARE / damage to plant (100=total damage to plant; 0=no damage to plant), BIDPI / damage to plant (100=total damage to plant; 0=no damage to plant), BRAPL / damage to plant (100=total damage to plant; 0=no damage to plant), CYPES / damage to plant (100=total damage to plant; 0=no damage to plant), DIGSA / damage to plant (100=total damage to plant; 0=no damage to plant), ECHCG / damage to plant (100=total damage to plant; 0=no damage to plant), ELEIN / damage to plant (100=total damage to plant; 0=no damage to plant), EPHHL / damage to plant (100=total damage to plant; 0=no damage to plant), GLXMA / damage to plant (100=total damage to plant; 0=no damage to plant), IPOHE / damage to plant (100=total damage to plant; 0=no damage to plant), ORYSA / damage to plant (100=total damage to plant; 0=no damage to plant), PANMI / damage to plant (100=total damage to plant; 0=no damage to plant), SETFA / damage to plant (100=total damage to plant; 0=no damage to plant), SORVU: post-emergence
Experimental: A formulation containing 50 g/L of the test chemical was prepared by dissolving the active ingredient in a mixture of organic solvents and emulsifier, details of which are provided in the table. This formulation was then mixed with a small, variable amount of acetone to aid dissolution, before addition of a 0.2% v/v aqueous solution of an adjuvant, as the aqueous diluent, to form an aqueous spray solution which contains a predetermined concentration of the active ingredient.
This aqueous spray solution was then sprayed onto plants including maize and wheat that had been seed treated with a herbicide safener, after one day's cultivation (for pre-emergence) or after about 12 days' cultivation (for post-emergence). The plants were grown from seeds sown in standard soil, placed in a glasshouse under controlled conditions (at 24/18° C. or 20/16° C., day/night; 16 h light; 65% humidity). After spray application the plants were then grown in a glasshouse under the same conditions and watered twice daily. After 15 d for post-emergence and 20 DAA for pre-emergence the test was evaluated (100=total damage to plant; 0=no damage to plant).

CN1CC(c2cc(C(F)(F)F)n(C)n2)C(C(=O)Nc2ccc(F)cc2C(C)(F)F)C1=O (racemic) [Compound 26]
0: ALOMY damage rating (100=total damage to plant; 0=no damage to plant) (Rates 130) | ALOMY damage rating (100=total damage to plant; 0=no damage to plant) (Rates 250) | AVEFA damage rating (100=total damage to plant; 0=no damage to plant) (Rates 130) | BEAVA damage rating (100=total damage to plant; 0=no damage to plant) (Rates 130) | BEAVA damage rating (100=total damage to plant; 0=no damage to plant) (Rates 250) | BEAVA damage rating (100=total damage to plant; 0=no damage to plant) (Rates 500) | BROTE damage rating (100=total damage to plant; 0=no damage to plant) (Rates 130) | BROTE damage rating (100=total damage to plant; 0=no damage to plant) (Rates 250) | BROTE damage rating (100=total damage to plant; 0=no damage to plant) (Rates 500) | BRSNN damage rating (100=total damage to plant; 0=no damage to plant) (Rates 130) | BRSNN damage rating (100=total damage to plant; 0=no damage to plant) (Rates 250) | BRSNN damage rating (100=total damage to plant; 0=no damage to plant) (Rates 500) | CHEAL damage rating (100=total damage to plant; 0=no damage to plant) (Rates 130) | CHEAL damage rating (100=total damage to plant; 0=no damage to plant) (Rates 250) | GALAP damage rating (100=total damage to plant; 0=no damage to plant) (Rates 130) | GALAP damage rating (100=total damage to plant; 0=no damage to plant) (Rates 250) | HORVW damage rating (100=total damage to plant; 0=no damage to plant) (Rates 130) | HORVW damage rating (100=total damage to plant; 0=no damage to plant) (Rates 250) | KCHSC damage rating (100=total damage to plant; 0=no damage to plant) (Rates 130) | KCHSC damage rating (100=total damage to plant; 0=no damage to plant) (Rates 250) | KCHSC damage rating (100=total damage to plant; 0=no damage to plant) (Rates 500) | LOLPE damage rating (100=total damage to plant; 0=no damage to plant) (Rates 130) | LOLPE damage rating (100=total damage to plant; 0=no damage to plant) (Rates 250) | POLCO damage rating (100=total damage to plant; 0=no damage to plant) (Rates 130) | POLCO damage rating (100=total damage to plant; 0=no damage to plant) (Rates 250) | POLCO damage rating (100=total damage to plant; 0=no damage to plant) (Rates 500) | SINAR damage rating (100=total damage to plant; 0=no damage to plant) (Rates 130) | SINAR damage rating (100=total damage to plant; 0=no damage to plant) (Rates 250) | STEME damage rating (100=total damage to plant; 0=no damage to plant) (Rates 130) | STEME damage rating (100=total damage to plant; 0=no damage to plant) (Rates 250) | STEME damage rating (100=total damage to plant; 0=no damage to plant) (Rates 500) | VERPE damage rating (100=total damage to plant; 0=no damage to plant) (Rates 130) | VERPE damage rating (100=total damage to plant; 0=no damage to plant) (Rates 250) | damage to plant (100=total damage to plant; 0=no damage to plant), ABUTH (rate 130, evaluated after 15 d) | damage to plant (100=total damage to plant; 0=no damage to plant), ABUTH (rate 250, evaluated after 15 d) | damage to plant (100=total damage to plant; 0=no damage to plant), ABUTH (rate 500, evaluated after 15 d) | damage to plant (100=total damage to plant; 0=no damage to plant), AMARE (rate 130, evaluated after 15 d) | damage to plant (100=total damage to plant; 0=no damage to plant), AMARE (rate 250, evaluated after 15 d) | damage to plant (100=total damage to plant; 0=no damage to plant), AMARE (rate 500, evaluated after 15 d) | damage to plant (100=total damage to plant; 0=no damage to plant), BIDPI (rate 130, evaluated after 15 d) | damage to plant (100=total damage to plant; 0=no damage to plant), BIDPI (rate 250, evaluated after 15 d) | damage to plant (100=total damage to plant; 0=no damage to plant), BIDPI (rate 500, evaluated after 15 d) | damage to plant (100=total damage to plant; 0=no damage to plant), CYPES (rate 130, evaluated after 15 d) | damage to plant (100=total damage to plant; 0=no damage to plant), CYPES (rate 250, evaluated after 15 d) | damage to plant (100=total damage to plant; 0=no damage to plant), CYPES (rate 500, evaluated after 15 d) | damage to plant (100=total damage to plant; 0=no damage to plant), DIGSA (rate 130, evaluated after 15 d) | damage to plant (100=total damage to plant; 0=no damage to plant), ECHCG (rate 130, evaluated after 15 d) | damage to plant (100=total damage to plant; 0=no damage to plant), ECHCG (rate 250, evaluated after 15 d) | damage to plant (100=total damage to plant; 0=no damage to plant), ELEIN (rate 130, evaluated after 15 d) | damage to plant (100=total damage to plant; 0=no damage to plant), ELEIN (rate 250, evaluated after 15 d) | damage to plant (100=total damage to plant; 0=no damage to plant), EPHHL (rate 130, evaluated after 15 d) | damage to plant (100=total damage to plant; 0=no damage to plant), GLXMA (rate 130, evaluated after 15 d) | damage to plant (100=total damage to plant; 0=no damage to plant), GLXMA (rate 250, evaluated after 15 d) | damage to plant (100=total damage to plant; 0=no damage to plant), GLXMA (rate 500, evaluated after 15 d) | damage to plant (100=total damage to plant; 0=no damage to plant), IPOHE (rate 130, evaluated after 15 d) | damage to plant (100=total damage to plant; 0=no damage to plant), IPOHE (rate 250, evaluated after 15 d) | damage to plant (100=total damage to plant; 0=no damage to plant), IPOHE (rate 500, evaluated after 15 d) | damage to plant (100=total damage to plant; 0=no damage to plant), ORYSA (rate 130, evaluated after 15 d) | damage to plant (100=total damage to plant; 0=no damage to plant), ORYSA (rate 250, evaluated after 15 d) | damage to plant (100=total damage to plant; 0=no damage to plant), ORYSA (rate 500, evaluated after 15 d) | damage to plant (100=total damage to plant; 0=no damage to plant), PANMI (rate 130, evaluated after 15 d) | damage to plant (100=total damage to plant; 0=no damage to plant), PANMI (rate 250, evaluated after 15 d) | damage to plant (100=total damage to plant; 0=no damage to plant), PANMI (rate 500, evaluated after 15 d) | damage to plant (100=total damage to plant; 0=no damage to plant), SETFA (rate 130, evaluated after 15 d) | damage to plant (100=total damage to plant; 0=no damage to plant), SORVU (rate 130, evaluated after 15 d) | damage to plant (100=total damage to plant; 0=no damage to plant), SORVU (rate 250, evaluated after 15 d) | damage to plant (100=total damage to plant; 0=no damage to plant), SORVU (rate 500, evaluated after 15 d)
80: POAAN damage rating (100=total damage to plant; 0=no damage to plant) (Rates 500) | VERPE damage rating (100=total damage to plant; 0=no damage to plant) (Rates 500) | damage to plant (100=total damage to plant; 0=no damage to plant), BRAPL (rate 500, evaluated after 15 d)
10: AVEFA damage rating (100=total damage to plant; 0=no damage to plant) (Rates 250) | CHEAL damage rating (100=total damage to plant; 0=no damage to plant) (Rates 500) | SINAR damage rating (100=total damage to plant; 0=no damage to plant) (Rates 500) | damage to plant (100=total damage to plant; 0=no damage to plant), DIGSA (rate 250, evaluated after 15 d) | damage to plant (100=total damage to plant; 0=no damage to plant), ECHCG (rate 500, evaluated after 15 d) | damage to plant (100=total damage to plant; 0=no damage to plant), ELEIN (rate 500, evaluated after 15 d) | damage to plant (100=total damage to plant; 0=no damage to plant), EPHHL (rate 250, evaluated after 15 d) | damage to plant (100=total damage to plant; 0=no damage to plant), EPHHL (rate 500, evaluated after 15 d)
40: ALOMY damage rating (100=total damage to plant; 0=no damage to plant) (Rates 500) | HORVW damage rating (100=total damage to plant; 0=no damage to plant) (Rates 500)
60: AVEFA damage rating (100=total damage to plant; 0=no damage to plant) (Rates 500) | GALAP damage rating (100=total damage to plant; 0=no damage to plant) (Rates 500) | LOLPE damage rating (100=total damage to plant; 0=no damage to plant) (Rates 500) | damage to plant (100=total damage to plant; 0=no damage to plant), BRAPL (rate 250, evaluated after 15 d) | damage to plant (100=total damage to plant; 0=no damage to plant), DIGSA (rate 500, evaluated after 15 d) | damage to plant (100=total damage to plant; 0=no damage to plant), SETFA (rate 250, evaluated after 15 d) | damage to plant (100=total damage to plant; 0=no damage to plant), SETFA (rate 500, evaluated after 15 d)
20: POAAN damage rating (100=total damage to plant; 0=no damage to plant) (Rates 250)
50: damage to plant (100=total damage to plant; 0=no damage to plant), BRAPL (rate 130, evaluated after 15 d)
30: POAAN damage rating (100=total damage to plant; 0=no damage to plant) (Rates 130)
